Data as given in patent US12479847B2 (DANA-FARBER CANCER INSTITUTE, INC., priority 2019, dated 2025).

What was measured:
Test in all cases: KINOMEscan (ScanMAX) kinase profiling
Format in all cases: binding
panel of 468 kinases [1] = biological target: T1, panel of 468 kinases (Homo sapiens, UniProt Q8NFD2); settings: ANKK1; 1 μM; read-out: % control
T1 construct: purchased KINOMEscan (ScanMAX) service
T1 sequence (Q8NFD2 1-765): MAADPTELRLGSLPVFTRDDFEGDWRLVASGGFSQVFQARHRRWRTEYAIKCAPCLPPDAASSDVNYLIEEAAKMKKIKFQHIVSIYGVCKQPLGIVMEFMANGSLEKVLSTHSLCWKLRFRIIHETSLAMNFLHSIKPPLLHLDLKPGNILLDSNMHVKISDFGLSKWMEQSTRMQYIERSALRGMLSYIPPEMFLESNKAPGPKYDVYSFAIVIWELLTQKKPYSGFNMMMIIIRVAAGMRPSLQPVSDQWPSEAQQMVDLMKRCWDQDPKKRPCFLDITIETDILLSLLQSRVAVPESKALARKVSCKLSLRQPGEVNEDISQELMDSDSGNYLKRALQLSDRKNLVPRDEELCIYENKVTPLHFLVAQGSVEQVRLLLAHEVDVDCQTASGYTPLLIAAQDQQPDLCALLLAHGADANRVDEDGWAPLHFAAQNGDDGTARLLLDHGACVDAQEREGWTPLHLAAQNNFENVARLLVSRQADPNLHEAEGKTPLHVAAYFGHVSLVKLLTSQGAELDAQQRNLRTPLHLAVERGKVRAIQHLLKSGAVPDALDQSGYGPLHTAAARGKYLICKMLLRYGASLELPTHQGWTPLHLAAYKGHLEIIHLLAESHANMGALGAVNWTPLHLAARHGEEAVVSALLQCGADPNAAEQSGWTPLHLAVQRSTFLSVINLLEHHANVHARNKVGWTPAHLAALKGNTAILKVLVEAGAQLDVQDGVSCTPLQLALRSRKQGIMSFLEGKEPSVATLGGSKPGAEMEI

panel of 468 kinases [2] = biological target: T2, panel of 468 kinases (Homo sapiens, UniProt Q9UM73, C1156Y); settings: ALK(C1156Y); 1 μM; read-out: % control
T2 construct: purchased KINOMEscan (ScanMAX) service
T2 sequence (Q9UM73 19-1620 C1156Y): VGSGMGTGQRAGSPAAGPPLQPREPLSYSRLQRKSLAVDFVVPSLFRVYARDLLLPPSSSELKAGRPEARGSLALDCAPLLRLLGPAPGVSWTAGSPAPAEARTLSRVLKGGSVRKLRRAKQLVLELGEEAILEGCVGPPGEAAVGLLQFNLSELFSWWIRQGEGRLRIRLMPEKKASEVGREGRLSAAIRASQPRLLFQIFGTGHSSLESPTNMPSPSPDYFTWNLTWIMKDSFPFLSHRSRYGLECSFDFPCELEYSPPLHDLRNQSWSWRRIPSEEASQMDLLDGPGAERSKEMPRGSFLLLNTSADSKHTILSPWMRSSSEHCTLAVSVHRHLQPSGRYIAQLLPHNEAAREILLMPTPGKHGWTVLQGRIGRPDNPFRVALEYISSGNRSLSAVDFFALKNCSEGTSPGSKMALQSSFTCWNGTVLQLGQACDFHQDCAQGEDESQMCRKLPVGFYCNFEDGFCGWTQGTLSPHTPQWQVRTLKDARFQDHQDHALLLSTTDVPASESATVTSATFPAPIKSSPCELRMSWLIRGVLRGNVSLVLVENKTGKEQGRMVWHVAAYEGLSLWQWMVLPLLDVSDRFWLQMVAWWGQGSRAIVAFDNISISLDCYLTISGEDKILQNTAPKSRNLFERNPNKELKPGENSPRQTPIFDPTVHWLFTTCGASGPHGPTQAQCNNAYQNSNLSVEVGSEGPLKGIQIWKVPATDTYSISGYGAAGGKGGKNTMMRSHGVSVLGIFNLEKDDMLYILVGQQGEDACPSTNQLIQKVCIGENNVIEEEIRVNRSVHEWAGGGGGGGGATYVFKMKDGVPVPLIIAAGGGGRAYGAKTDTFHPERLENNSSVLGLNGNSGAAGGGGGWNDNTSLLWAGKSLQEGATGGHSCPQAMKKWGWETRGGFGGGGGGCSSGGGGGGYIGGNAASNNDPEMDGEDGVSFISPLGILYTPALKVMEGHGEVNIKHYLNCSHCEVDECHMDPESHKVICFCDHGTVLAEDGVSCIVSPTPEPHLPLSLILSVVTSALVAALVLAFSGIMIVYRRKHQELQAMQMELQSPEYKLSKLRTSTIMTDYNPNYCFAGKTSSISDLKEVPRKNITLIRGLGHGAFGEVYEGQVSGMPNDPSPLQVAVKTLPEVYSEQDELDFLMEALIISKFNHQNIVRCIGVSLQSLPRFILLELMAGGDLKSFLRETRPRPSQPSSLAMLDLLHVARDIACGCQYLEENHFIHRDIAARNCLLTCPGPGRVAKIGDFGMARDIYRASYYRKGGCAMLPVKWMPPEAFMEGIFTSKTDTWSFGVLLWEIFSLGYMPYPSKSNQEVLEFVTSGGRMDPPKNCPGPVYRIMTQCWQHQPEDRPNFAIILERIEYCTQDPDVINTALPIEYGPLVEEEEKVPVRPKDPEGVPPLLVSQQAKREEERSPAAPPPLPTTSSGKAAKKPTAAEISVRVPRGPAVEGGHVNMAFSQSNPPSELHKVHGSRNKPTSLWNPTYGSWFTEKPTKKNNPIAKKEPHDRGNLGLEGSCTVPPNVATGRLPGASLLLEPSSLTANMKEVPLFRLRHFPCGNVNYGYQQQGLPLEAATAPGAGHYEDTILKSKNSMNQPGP

panel of 468 kinases [3] = biological target: T3, panel of 468 kinases (Homo sapiens, UniProt P36888, D835V); settings: FLT3(D835V); 1 μM; read-out: % control
T3 construct: purchased KINOMEscan (ScanMAX) service
T3 sequence (P36888 27-993 D835V): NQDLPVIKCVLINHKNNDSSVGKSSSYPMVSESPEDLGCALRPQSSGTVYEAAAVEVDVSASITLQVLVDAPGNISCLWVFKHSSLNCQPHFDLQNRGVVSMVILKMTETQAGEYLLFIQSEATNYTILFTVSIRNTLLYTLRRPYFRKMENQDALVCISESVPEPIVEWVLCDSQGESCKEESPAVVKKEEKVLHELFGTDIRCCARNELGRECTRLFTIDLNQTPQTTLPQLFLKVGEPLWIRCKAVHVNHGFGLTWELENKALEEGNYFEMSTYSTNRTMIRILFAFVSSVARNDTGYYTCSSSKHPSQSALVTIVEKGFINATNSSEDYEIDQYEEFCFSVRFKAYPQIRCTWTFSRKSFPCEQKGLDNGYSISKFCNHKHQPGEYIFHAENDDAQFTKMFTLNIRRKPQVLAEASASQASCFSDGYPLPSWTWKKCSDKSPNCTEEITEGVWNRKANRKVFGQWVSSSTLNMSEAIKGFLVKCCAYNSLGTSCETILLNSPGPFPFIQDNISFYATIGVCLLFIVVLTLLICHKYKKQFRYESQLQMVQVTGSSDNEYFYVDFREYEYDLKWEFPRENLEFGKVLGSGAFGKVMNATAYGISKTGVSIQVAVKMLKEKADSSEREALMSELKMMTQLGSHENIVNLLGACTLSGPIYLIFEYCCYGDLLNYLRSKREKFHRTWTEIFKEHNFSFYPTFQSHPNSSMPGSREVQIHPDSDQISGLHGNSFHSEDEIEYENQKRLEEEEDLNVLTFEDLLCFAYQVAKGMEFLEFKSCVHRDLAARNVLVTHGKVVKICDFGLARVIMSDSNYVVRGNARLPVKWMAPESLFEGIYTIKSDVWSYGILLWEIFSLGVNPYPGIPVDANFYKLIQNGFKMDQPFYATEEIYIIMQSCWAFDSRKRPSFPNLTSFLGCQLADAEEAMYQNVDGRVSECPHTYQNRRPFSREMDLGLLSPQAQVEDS

panel of 468 kinases [4] = biological target: T4, panel of 468 kinases (Homo sapiens, UniProt P51617); settings: IRAK1; 1 μM; read-out: % control
T4 construct: purchased KINOMEscan (ScanMAX) service
T4 sequence (P51617 whole entry): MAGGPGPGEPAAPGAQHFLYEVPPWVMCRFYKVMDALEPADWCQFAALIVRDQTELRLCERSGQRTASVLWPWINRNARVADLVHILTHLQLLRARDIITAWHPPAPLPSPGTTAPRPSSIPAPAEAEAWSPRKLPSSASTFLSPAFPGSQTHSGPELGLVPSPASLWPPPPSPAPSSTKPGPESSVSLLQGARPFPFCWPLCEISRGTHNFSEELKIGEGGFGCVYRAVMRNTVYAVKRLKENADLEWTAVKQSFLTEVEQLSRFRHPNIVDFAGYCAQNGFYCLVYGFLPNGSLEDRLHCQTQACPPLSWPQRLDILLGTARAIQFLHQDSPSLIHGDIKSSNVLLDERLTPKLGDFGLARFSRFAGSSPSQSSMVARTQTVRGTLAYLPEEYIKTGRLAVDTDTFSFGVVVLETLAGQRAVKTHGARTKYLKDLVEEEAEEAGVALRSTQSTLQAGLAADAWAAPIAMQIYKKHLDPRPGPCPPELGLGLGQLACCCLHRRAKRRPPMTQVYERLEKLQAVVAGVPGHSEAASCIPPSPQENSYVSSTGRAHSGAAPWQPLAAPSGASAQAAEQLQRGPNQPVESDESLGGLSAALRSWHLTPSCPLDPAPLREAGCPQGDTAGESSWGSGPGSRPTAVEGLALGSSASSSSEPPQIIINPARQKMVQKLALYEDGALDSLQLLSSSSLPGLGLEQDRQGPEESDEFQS

panel of 468 kinases [5] = biological target: T5, panel of 468 kinases (Homo sapiens, UniProt Q13470); settings: TNK1; 1 μM; read-out: % control
T5 construct: purchased KINOMEscan (ScanMAX) service
T5 sequence (Q13470 1-666): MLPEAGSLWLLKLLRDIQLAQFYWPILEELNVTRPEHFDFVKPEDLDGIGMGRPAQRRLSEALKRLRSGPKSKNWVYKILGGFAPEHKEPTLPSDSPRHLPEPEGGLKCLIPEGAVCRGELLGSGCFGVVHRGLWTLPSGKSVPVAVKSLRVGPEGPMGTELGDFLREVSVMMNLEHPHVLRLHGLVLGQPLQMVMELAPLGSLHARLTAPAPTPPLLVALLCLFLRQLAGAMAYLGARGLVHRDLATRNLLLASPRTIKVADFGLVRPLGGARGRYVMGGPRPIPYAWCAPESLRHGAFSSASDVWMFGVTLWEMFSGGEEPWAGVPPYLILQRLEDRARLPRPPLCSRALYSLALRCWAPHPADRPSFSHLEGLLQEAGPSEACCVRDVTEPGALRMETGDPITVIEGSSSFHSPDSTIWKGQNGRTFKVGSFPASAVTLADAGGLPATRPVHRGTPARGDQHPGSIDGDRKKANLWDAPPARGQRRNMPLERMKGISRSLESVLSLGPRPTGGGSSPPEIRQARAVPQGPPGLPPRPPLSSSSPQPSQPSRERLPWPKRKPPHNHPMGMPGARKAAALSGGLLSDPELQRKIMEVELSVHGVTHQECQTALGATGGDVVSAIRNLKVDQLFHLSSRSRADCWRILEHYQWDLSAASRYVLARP

panel of 468 kinases [6] = biological target: T6, panel of 468 kinases (Homo sapiens, UniProt P42336, M1043I); settings: PIK3CA(M1043I); 1 μM; read-out: % control
T6 construct: purchased KINOMEscan (ScanMAX) service
T6 sequence (P42336 whole entry M1043I): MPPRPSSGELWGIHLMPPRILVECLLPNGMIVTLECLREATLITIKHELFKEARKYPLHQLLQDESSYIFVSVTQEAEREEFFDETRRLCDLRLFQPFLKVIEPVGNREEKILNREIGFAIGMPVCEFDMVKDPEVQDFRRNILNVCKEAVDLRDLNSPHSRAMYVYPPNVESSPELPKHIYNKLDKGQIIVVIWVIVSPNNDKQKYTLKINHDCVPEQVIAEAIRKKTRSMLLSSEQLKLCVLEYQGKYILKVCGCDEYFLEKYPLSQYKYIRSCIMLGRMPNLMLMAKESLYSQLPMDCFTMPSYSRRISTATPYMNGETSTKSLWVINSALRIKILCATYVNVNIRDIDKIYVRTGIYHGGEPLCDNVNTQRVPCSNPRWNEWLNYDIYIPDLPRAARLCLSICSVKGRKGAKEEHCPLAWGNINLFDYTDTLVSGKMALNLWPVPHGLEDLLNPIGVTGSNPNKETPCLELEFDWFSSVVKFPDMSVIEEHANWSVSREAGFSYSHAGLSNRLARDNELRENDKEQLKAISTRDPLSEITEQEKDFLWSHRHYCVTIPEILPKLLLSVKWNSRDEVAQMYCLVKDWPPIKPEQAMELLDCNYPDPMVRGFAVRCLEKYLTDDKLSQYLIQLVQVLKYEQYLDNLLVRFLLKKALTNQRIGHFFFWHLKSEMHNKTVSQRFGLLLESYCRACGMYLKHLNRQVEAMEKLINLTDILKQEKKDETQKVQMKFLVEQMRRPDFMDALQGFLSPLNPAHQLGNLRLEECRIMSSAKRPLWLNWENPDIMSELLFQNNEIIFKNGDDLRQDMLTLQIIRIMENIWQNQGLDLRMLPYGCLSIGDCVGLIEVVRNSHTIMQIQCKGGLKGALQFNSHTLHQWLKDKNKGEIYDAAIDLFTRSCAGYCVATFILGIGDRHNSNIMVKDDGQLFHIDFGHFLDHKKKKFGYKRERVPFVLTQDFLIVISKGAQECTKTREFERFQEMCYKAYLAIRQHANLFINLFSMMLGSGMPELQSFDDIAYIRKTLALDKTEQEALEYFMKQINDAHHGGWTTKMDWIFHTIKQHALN

Row | SMILES | remaining binding at 1 µM (panel of 468 kinases [1]) | remaining binding at 1 µM (panel of 468 kinases [2]) | remaining binding at 1 µM (panel of 468 kinases [3]) | remaining binding at 1 µM (panel of 468 kinases [4]) | remaining binding at 1 µM (panel of 468 kinases [5]) | remaining binding at 1 µM (panel of 468 kinases [6])
1 | CNc1nc(Nc2ccc(C(=O)N3CCC(N4CCOCC4)CC3)c3c2OCO3)nc2[nH]cc(Cl)c12 [Compound 75, (7-((5-chloro-4-(methylamino)-7H-pyrrolo[2,3-d]pyrimidin-2-yl)amino)benzo[d][1,3]dioxol-4-yl)(4-morpholinopiperidin-1-yl)methanone] | 41% | 1.2% | 1.8% | 51% | 100% | 99%
2 | CNc1nc(Nc2ccc(S(=O)(=O)N3CCC(N4CCOCC4)CC3)cc2OC)nc2[nH]cc(Cl)c12 [Compound 12, 5-chloro-N2-(2-methoxy-4-((4-morpholinopiperidin-1-yl)sulfonyl)phenyl)-N4-methyl-7H-pyrrolo[2,3-d]pyrimidine-2,4-diamine] | 73% | 2.7% | 72% | 92% | 100% | 98%
3 | CNc1nc(Nc2ccc(P3(=O)CCN(C4CCOCC4)CC3)cc2OC)nc2[nH]cc(Cl)c12 [Compound 77, 4-(4-((5-chloro-4-(methylamino)-7H-pyrrolo[2,3-d]pyrimidin-2-yl)amino)-3-methoxyphenyl)-1-(tetrahydro-2H-pyran-4-yl)-1,4-azaphosphinane 4-oxide] | 65% | 1.3% | 9.7% | 88% | 96% | 96%
